Data from ChEMBL document CHEMBL5143671, “Discovery of (R)-(3-fluoropyrrolidin-1-yl)(6-((5-(trifluoromethyl)pyridin-2-yl)oxy)quinolin-2-yl)methanone (ABBV-318) and analogs as small molecule Nav1.7/ Nav1.8 blockers for the treatment of pain” (Bioorg Med Chem, 2022).
≈ marks a conversion by molar mass, not a printed value. One block for each molecule: values may come before it.

Tests used:
in vitro [1] = conditions: PAMPA
[2] = Drug concentration in plasma of monoiodoacetate-induced Sprague-Dawley rat model of osteoarthritis at 3 mg/kg, po administered for 5 days and measured after 15 mins; assay type: ADME, organism-based; conditions: time 5 day
[3] = Cardiotoxicity in conscious dog CV model assessed as effect on heart rate upto […] microg/ml by ECG analysis; assay type: toxicity, Canis lupus familiaris; conditions: dose < 5.5 µg/ml
[4] = Ratio of free drug concentration in brain to plasma of rat; assay type: ADME, cell-free; conditions: brain and plasma
Rattus norvegicus [5] = species: Rattus norvegicus; experiment: animal or person; conditions: Sprague-Dawley
in vivo [6] = conditions: Sprague-Dawley, rat, po
[7] = rat, in vivo, po
physchem [8] = conditions: phosphate buffer
Rattus norvegicus [9] = species: Rattus norvegicus; experiment: animal or person; conditions: Sprague-Dawley; remark: listed apart in the source
[10] = Cardiotoxicity in conscious dog CV model assessed as effect on mean arterial pressure upto […] microg/ml […]; assay type: toxicity, Canis lupus familiaris; conditions: dose < 5.5 µg/ml
[11] = target: Sodium channel protein type 2 subunit alpha (Homo sapiens, UniProt Q99250); experiment: Inhibition of recombinant human Nav1.2 expressed in HEK293 cells incubated for 3 mins by FRET based membrane potential assay; assay type: cell-based
Chain of Sodium channel protein type 2 subunit alpha (Q99250 whole entry): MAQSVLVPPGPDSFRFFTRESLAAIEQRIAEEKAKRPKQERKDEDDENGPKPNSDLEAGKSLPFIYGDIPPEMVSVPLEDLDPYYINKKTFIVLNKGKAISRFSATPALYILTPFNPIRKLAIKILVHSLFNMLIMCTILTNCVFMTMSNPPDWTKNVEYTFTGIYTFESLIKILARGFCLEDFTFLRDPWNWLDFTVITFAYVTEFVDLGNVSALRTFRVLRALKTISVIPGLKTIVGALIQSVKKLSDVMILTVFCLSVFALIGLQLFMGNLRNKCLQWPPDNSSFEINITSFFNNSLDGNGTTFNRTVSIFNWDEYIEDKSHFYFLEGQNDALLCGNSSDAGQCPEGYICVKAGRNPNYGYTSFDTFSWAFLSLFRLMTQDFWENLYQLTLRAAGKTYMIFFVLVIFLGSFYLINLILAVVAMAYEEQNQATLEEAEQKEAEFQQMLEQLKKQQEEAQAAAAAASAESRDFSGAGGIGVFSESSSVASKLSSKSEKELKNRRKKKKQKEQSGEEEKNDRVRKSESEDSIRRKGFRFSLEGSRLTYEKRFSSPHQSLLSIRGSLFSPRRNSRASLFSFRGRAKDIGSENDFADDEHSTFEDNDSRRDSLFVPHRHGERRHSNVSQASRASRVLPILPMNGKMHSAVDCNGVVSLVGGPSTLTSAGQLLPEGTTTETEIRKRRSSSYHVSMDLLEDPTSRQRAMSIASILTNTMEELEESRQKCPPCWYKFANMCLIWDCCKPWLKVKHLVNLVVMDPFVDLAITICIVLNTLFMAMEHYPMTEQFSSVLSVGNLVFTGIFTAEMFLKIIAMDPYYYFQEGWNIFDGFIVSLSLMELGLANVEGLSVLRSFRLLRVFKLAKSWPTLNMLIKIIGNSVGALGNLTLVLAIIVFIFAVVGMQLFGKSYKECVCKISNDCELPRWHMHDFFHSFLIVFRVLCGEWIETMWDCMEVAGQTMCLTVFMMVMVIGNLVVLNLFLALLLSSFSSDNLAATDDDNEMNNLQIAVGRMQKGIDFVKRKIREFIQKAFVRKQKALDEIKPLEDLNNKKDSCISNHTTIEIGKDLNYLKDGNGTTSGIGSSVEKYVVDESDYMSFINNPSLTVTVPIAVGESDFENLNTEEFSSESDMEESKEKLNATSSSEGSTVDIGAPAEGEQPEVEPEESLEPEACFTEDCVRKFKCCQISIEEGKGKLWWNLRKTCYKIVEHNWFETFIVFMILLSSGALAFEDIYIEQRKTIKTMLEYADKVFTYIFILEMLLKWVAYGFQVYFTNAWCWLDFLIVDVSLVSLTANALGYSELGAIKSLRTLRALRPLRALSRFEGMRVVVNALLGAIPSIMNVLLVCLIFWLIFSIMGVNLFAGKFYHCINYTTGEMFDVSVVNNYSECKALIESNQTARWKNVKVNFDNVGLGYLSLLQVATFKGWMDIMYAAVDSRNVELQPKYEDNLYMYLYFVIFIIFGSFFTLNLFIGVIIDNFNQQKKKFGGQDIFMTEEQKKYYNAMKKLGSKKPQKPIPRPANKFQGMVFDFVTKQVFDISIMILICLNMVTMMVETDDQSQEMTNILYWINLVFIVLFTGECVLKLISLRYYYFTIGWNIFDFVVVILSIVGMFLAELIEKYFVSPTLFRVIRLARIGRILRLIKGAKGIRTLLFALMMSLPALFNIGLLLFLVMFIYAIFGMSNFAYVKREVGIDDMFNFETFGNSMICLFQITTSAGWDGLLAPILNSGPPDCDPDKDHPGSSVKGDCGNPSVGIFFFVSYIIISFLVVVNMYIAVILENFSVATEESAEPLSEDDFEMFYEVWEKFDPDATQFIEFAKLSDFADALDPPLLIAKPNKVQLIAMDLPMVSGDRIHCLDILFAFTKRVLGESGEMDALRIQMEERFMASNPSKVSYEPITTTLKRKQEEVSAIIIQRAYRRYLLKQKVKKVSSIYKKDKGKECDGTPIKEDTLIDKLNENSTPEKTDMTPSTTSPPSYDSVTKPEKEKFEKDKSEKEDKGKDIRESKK

[12] = Cardiotoxicity in conscious dog CV model assessed as effect on QT interval upto 5.5 microg/ml by ECG analysis; assay type: toxicity, Canis lupus familiaris; conditions: dose < 5.5 µg/ml
[13] = Drug concentration in plasma of monoiodoacetate-induced Sprague-Dawley rat model of osteoarthritis at 30 mg/kg, po administered for 5 days and measured after 15 mins; assay type: ADME, organism-based; conditions: time 5 day
in vivo [14] = conditions: Sprague-Dawley, rat, po; remark: listed apart in the source
[15] = Drug concentration in plasma of monoiodoacetate-induced Sprague-Dawley rat model of osteoarthritis at 10 mg/kg, po administered for 5 days and measured after 15 mins; assay type: ADME, organism-based; conditions: time 5 day
physchem [16] = conditions: octanol/water
[17] = Drug concentration in plasma of monoiodoacetate-induced chronic Sprague-Dawley rat model of osteoarthritis at 3 mg/kg, po administered twice for 1 day; assay type: ADME, organism-based
[18] = Drug concentration in plasma of monoiodoacetate-induced chronic Sprague-Dawley rat model of osteoarthritis at 10 mg/kg, po administered twice daily for 5 days; assay type: ADME, organism-based; conditions: time 5 day
[19] = Cardiotoxicity in anesthetized rat CV model assessed as effect on QRS complex upto 31 uM by ECG analysis; assay type: toxicity
[20] = target: Sodium channel protein type 5 subunit alpha (Homo sapiens, UniProt Q14524)
[21] = Drug concentration in plasma of monoiodoacetate-induced chronic Sprague-Dawley rat model of osteoarthritis at 1 mg/kg, po administered twice daily for 5 days; assay type: ADME, organism-based; conditions: time 5 day
[22] = Drug exposure in plasma of rat; assay type: ADME; conditions: in vivo
[23] = Drug concentration in plasma of monoiodoacetate-induced chronic Sprague-Dawley rat model of osteoarthritis at 0.3 mg/kg, po administered twice daily for 5 days; assay type: ADME, organism-based; conditions: time 5 day
[24] = Effect on locomotor activity in rat by locomotor assay; assay type: toxicity
[25] = Volume of distribution at steady state in orally dosed dog; assay type: ADME, organism-based, Canis lupus familiaris; conditions: in vivo, po
[26] = target: T1, Sodium channel protein type 9 subunit alpha (Homo sapiens, UniProt Q15858); experiment: Inhibition of recombinant human Nav 1.7 expressed in HEK293F cells at […] holding potential by manual voltage clamp electrophysiology method; assay type: cell-based
T1 sequence (Q15858 whole entry, looked up): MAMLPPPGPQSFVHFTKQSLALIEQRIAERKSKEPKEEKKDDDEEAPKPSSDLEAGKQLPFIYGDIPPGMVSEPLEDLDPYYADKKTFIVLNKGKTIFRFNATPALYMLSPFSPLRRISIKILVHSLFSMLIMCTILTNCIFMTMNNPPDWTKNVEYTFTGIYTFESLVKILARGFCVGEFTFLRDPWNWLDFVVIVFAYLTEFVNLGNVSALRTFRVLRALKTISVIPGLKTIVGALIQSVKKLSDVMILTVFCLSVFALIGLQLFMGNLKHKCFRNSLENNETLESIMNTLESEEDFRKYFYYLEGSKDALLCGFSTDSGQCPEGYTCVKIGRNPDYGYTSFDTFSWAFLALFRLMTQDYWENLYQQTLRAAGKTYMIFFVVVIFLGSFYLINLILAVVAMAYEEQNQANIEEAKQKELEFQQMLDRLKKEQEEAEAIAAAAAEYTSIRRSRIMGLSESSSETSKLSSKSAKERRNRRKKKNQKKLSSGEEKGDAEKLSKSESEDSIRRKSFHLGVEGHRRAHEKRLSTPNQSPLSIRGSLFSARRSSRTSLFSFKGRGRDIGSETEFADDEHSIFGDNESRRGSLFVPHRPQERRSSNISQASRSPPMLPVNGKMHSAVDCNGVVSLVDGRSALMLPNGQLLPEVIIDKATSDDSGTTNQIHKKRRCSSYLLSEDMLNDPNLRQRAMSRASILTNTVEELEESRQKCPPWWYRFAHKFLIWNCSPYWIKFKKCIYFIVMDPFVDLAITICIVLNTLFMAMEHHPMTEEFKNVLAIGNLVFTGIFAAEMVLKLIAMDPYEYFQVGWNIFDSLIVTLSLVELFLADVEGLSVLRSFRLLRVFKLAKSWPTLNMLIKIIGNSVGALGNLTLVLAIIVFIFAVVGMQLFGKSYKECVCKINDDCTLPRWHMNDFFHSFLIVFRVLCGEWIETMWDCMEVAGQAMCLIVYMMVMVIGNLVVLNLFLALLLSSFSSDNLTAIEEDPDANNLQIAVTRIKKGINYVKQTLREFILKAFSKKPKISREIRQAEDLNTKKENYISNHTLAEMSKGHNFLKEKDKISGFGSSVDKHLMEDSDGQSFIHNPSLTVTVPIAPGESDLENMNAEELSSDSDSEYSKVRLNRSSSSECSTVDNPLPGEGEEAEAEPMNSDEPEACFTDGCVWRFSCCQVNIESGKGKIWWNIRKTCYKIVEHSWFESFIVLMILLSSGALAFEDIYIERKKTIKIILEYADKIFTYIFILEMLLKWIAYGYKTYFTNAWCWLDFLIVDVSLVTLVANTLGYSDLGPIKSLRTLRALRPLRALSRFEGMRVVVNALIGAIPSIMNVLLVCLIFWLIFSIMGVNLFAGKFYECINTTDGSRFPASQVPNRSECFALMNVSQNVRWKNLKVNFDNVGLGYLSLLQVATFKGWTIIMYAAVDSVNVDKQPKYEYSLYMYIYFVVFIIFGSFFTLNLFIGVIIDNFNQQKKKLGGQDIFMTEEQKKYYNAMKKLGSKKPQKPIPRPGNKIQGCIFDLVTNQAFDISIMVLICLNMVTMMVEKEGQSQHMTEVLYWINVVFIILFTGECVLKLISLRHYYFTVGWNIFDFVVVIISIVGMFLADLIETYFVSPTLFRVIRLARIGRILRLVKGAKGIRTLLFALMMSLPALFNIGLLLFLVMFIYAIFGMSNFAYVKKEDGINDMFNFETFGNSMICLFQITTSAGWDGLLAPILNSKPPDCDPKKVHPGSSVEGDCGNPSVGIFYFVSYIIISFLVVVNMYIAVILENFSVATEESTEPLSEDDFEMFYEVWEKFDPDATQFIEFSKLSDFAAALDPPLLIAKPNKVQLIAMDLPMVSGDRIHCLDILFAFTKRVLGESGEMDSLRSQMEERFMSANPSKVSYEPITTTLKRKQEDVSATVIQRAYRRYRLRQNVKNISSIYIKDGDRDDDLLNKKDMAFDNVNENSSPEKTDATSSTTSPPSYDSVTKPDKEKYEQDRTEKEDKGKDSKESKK

[27] = Drug concentration in plasma of monoiodoacetate-induced chronic Sprague-Dawley rat model of osteoarthritis at 3 mg/kg, po administered twice daily for 5 days; assay type: ADME, organism-based; conditions: time 5 day
[28] = Drug concentration in brain of monoiodoacetate-induced chronic Sprague-Dawley rat model of osteoarthritis at 10 mg/kg, po administered twice daily for 5 days; assay type: ADME, organism-based; conditions: time 5 day, read-out: Ct
[29] = Half-life in orally dosed dog; assay type: ADME, organism-based, Canis lupus familiaris; conditions: in vivo, route po
[30] = Half-life in orally dosed monkey; assay type: ADME, organism-based, Macaca mulatta; conditions: rhesus monkey, in vivo; route po
[31] = Drug concentration in plasma of monoiodoacetate-induced acute Sprague-Dawley rat model of osteoarthritis at 10 mg/kg, po administered for 5 days and measured after 15 mins; assay type: ADME, organism-based; conditions: time 5 day
[32] = Volume of distribution at steady state in orally dosed monkey; assay type: ADME, organism-based, Macaca mulatta; conditions: rhesus monkey, in vivo, po
[33] = Drug concentration in brain of monoiodoacetate-induced chronic Sprague-Dawley rat model of osteoarthritis at 1 mg/kg, po administered twice daily for 5 days; assay type: ADME, organism-based; conditions: time 5 day, read-out: Ct
[34] = Drug concentration in plasma of monoiodoacetate-induced chronic Sprague-Dawley rat model of osteoarthritis at 10 mg/kg, po administered twice for 1 day; assay type: ADME, organism-based
[35] = Drug concentration in plasma of monoiodoacetate-induced chronic Sprague-Dawley rat model of osteoarthritis at 1 mg/kg, po administered twice for 1 day; assay type: ADME, organism-based
[36] = Cardiotoxicity in conscious dog CV model assessed as effect on QRS complex upto 47 uM by ECG analysis; assay type: toxicity, Canis lupus familiaris
[37] = Drug concentration in plasma of monoiodoacetate-induced chronic Sprague-Dawley rat model of osteoarthritis at 0.3 mg/kg, po administered twice for 1 day; assay type: ADME, organism-based
[38] = Drug concentration in brain of monoiodoacetate-induced acute Sprague-Dawley rat model of osteoarthritis at 10 mg/kg, po administered for 5 days and measured after 15 mins; assay type: ADME, organism-based; conditions: time 5 day, read-out: Ct
[39] = Cardiotoxicity in anesthetized rat CV model assessed as effect on PR interval upto 31 uM by ECG analysis; assay type: toxicity
Rattus norvegicus [40] = species: Rattus norvegicus; experiment: cells; conditions: Sprague-Dawley
[41] = Drug concentration in brain of monoiodoacetate-induced chronic Sprague-Dawley rat model of osteoarthritis at 0.3 mg/kg, po administered twice daily for 5 days; assay type: ADME, organism-based; conditions: time 5 day, read-out: Ct
[42] = Inhibition of rat Nav 1.7 by FRET based membrane potential assay
[43] = Oral bioavailability in dog; assay type: ADME, organism-based, Canis lupus familiaris; conditions: in vivo
[44] = Drug concentration in brain of monoiodoacetate-induced chronic Sprague-Dawley rat model of osteoarthritis at 3 mg/kg, po administered twice daily for 5 days; assay type: ADME, organism-based; conditions: time 5 day, read-out: Ct
[45] = Drug concentration in brain of monoiodoacetate-induced acute Sprague-Dawley rat model of osteoarthritis at 3 mg/kg, po administered for 5 days and measured after 15 mins; assay type: ADME, organism-based; conditions: time 5 day, read-out: Ct
[46] = Drug concentration in plasma of monoiodoacetate-induced acute Sprague-Dawley rat model of osteoarthritis at 30 mg/kg, po administered for 5 days and measured after 15 mins; assay type: ADME, organism-based; conditions: time 5 day
[47] = Cardiotoxicity in conscious dog CV model assessed as effect on PR interval upto 47 uM by ECG analysis; assay type: toxicity, Canis lupus familiaris
[48] = target: T1, Sodium channel protein type 9 subunit alpha
in vivo [49] = conditions: Sprague-Dawley, rat, iv
[50] = Drug concentration in rat plasma assessed as free fraction; assay type: ADME, cell-free
[51] = Effect on locomotor activity in rat by rotorod test; assay type: toxicity
[52] = Clearance in iv dosed monkey; assay type: ADME, organism-based, Macaca mulatta; conditions: rhesus monkey, in vivo
[53] = Drug concentration in plasma of monoiodoacetate-induced acute Sprague-Dawley rat model of osteoarthritis at 3 mg/kg, po administered for 5 days and measured after 15 mins; assay type: ADME, organism-based; conditions: time 5 day
[54] = Oral bioavailability in monkey; assay type: ADME, organism-based, Macaca mulatta; conditions: rhesus monkey, in vivo
[55] = Clearance in iv dosed dog; assay type: ADME, organism-based, Canis lupus familiaris; conditions: in vivo
[56] = Drug concentration in rat brain assessed as free fraction; assay type: ADME, tissue-based
[57] = Drug concentration in brain of monoiodoacetate-induced acute Sprague-Dawley rat model of osteoarthritis at 30 mg/kg, po administered for 5 days and measured after 15 mins; assay type: ADME, organism-based; conditions: time 5 day, read-out: Ct
Rattus norvegicus [58] = experiment: Antiallodynic activity in Sprague-Dawley rat model of L5/L6 spinal nerve ligation-induced neuropathic pain assessed as maximal possible effect at 10 mg/kg, ip; assay type: functional
Rattus norvegicus [59] = experiment: Antiallodynic activity in Sprague-Dawley rat model of L5/L6 spinal nerve ligation-induced neuropathic pain assessed as maximal possible effect at 3 mg/kg, ip; assay type: functional
[60] = human, microsomes, 0.5 h, 0.5 µM
[61] = Drug concentration in plasma of Sprague-Dawley rat model of L5/L6 spinal nerve ligation-induced neuropathic pain at 30 mg/kg, ip by LC/MS analysis; assay type: ADME, organism-based; conditions: in vivo
[62] = Drug concentration in plasma of Sprague-Dawley rat model of L5/L6 spinal nerve ligation-induced neuropathic pain at 3 mg/kg, ip by LC/MS analysis; assay type: ADME, organism-based; conditions: in vivo
Rattus norvegicus [63] = experiment: Antiallodynic activity in Sprague-Dawley rat model of L5/L6 spinal nerve ligation-induced neuropathic pain assessed as maximal possible effect at 30 mg/kg, ip; assay type: functional
MDR1 = experiment: in vitro; conditions: dog, MDCK-MDR1
[64] = target: Sodium channel protein type 10 subunit alpha (Homo sapiens, UniProt Q9Y5Y9); experiment: Inhibition of human Nav1.8 by FRET based membrane potential assay
[65] = rat, microsomes, 0.5 h, 0.5 µM
in vitro [66] = conditions: dog, MDCK
[67] = Drug concentration in plasma of Sprague-Dawley rat model of L5/L6 spinal nerve ligation-induced neuropathic pain at 10 mg/kg, ip by LC/MS analysis; assay type: ADME, organism-based; conditions: in vivo
[68] = target: Voltage-gated inwardly rectifying potassium channel KCNH2 (Homo sapiens, UniProt Q12809);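 further: hERG channel blockade measured by electrophysiology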
Chain of Voltage-gated inwardly rectifying potassium channel KCNH2 (Q12809 whole entry): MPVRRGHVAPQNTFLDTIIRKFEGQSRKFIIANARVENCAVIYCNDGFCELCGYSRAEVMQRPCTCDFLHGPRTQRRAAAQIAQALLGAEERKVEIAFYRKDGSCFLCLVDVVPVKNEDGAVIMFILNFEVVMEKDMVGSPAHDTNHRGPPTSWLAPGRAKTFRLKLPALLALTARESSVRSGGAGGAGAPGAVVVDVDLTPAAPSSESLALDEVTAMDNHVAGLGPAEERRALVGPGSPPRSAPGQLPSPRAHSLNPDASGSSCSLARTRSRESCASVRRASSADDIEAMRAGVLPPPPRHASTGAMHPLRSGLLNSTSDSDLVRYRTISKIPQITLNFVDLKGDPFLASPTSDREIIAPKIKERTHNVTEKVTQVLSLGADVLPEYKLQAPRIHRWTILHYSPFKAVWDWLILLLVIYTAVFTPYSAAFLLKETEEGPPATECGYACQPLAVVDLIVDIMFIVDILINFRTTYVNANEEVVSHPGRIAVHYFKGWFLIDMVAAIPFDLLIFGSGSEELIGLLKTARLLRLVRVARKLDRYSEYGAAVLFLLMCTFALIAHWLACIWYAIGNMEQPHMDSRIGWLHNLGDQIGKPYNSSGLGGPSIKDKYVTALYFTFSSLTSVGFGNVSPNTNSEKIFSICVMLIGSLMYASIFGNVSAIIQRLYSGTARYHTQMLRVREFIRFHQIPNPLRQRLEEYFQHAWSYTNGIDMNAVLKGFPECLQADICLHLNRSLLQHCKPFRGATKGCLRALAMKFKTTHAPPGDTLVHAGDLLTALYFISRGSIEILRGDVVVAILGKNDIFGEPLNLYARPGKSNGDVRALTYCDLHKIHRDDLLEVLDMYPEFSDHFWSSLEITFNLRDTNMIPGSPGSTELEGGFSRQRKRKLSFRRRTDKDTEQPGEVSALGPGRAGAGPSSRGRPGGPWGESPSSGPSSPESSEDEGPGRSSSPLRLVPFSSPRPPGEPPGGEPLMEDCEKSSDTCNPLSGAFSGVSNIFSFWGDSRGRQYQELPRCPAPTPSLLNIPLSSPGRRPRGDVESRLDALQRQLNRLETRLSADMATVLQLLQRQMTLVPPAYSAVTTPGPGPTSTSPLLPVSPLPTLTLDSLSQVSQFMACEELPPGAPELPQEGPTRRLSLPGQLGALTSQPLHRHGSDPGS
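Wherever logD is given: distribution coefficient quantified using high-throughput LC-MS.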
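Wherever solubility is given: determined using a high-throughput solubility method.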

SMILES: O=C(c1ccc2cc(Oc3ccc(C(F)(F)F)cn3)ccc2n1)N1CCNCC1
Papp (in vitro [1]): 4.7 ×10⁻⁶ cm/s | concentration at 120 h [2]: 160 ng/mL | Activity [3]: Non-Toxic | Kp uu [4]: 0.08 | EC50 (Rattus norvegicus [5]): 0.17 µg/mL (≈ 0.422 µM) | bioavailability (in vivo [6]): 98% | Vdss [7]: 11.5 L/kg | solubility (physchem [8]): 200 µM (≈ 80.5 µg/mL) | EC50 (Rattus norvegicus [9]): 0.04 µg/mL (≈ 0.0994 µM) | Activity [10]: Non-Toxic | IC50 [11]: 6.6 µM | Activity [12]: Non-Toxic | concentration at 120 h [13]: 1060 ng/mL | half-life (in vivo [14]): 12.8 h | concentration at 120 h [15]: 510 ng/mL | logD (physchem [16]): 3.1

concentration at 24 h [17]: 750 ng/mL | concentration at 120 h [18]: 5480 ng/mL | concentration at 120 h [21]: 480 ng/mL | Kp uu [4]: 0.29 | Cp [22]: 11200 ng/mL | concentration at 120 h [23]: 140 ng/mL | EC50 (Rattus norvegicus [5]): 1.4 µg/mL (≈ 3.45 µM) | Vdss [25]: 4.1 L/kg | bioavailability (in vivo [6]): 80% | IC50 [26]: 1.1 µM | concentration at 120 h [27]: 1480 ng/mL | concentration at 120 h [28]: 4230 ng/mL | half-life [29]: 13.4 h | half-life [30]: 7.6 h | concentration at 120 h [31]: 5180 ng/mL | Vdss [32]: 3.6 L/kg | concentration at 120 h [33]: 260 ng/mL | Vdss [7]: 4.06 L/kg | concentration at 24 h [34]: 3440 ng/mL | concentration at 24 h [35]: 270 ng/mL | concentration at 24 h [37]: 70 ng/mL | solubility (physchem [8]): 84 µM (≈ 34 µg/mL) | concentration at 120 h [38]: 5240 ng/mL | EC50 (Rattus norvegicus [9]): 0.24 µg/mL (≈ 0.592 µM) | EC50 (Rattus norvegicus [40]): 4 µg/mL (≈ 9.87 µM) | concentration at 120 h [41]: 110 ng/mL | IC50 [42]: 2.86 µM | bioavailability [43]: 85% | concentration at 120 h [44]: 1140 ng/mL | concentration at 120 h [45]: 1530 ng/mL | concentration at 120 h [46]: 10000 ng/mL | half-life (in vivo [14]): 5.44 h | IC50 [48]: 3.14 µM | clearance (in vivo [49]): 7.17 mL/min/kg | fraction unbound [50]: 0.05 | clearance [52]: 5 mL/min/kg | concentration at 120 h [53]: 1410 ng/mL | bioavailability [54]: 110% | clearance [55]: 5 mL/min/kg | fraction unbound [56]: 0.015 | concentration at 120 h [57]: 10800 ng/mL
SMILES: O=C(c1ccc2cc(Oc3ccc(C(F)(F)F)cn3)ccc2n1)N1CC[C@@H](F)C1
Activity [19]: Non-Toxic | IC50 [20]: 33 µM | Activity [24]: Non-Toxic | Activity [36]: Non-Toxic | Activity [39]: Non-Toxic | Activity [47]: Non-Toxic | Activity [51]: Non-Toxic

SMILES: CN1CCN(C(=O)COc2ccc3cc(Oc4ccccn4)ccc3n2)CC1
IC50 [20]: 33 µM | MPE (Rattus norvegicus [58]): 30% | MPE (Rattus norvegicus [59]): 10% | CLH [60]: < 33 mL/min/kg | Kp uu [4]: 0.88 | Cp [61]: 1930 ng/mL | Cp [62]: 110 ng/mL | MPE (Rattus norvegicus [63]): 59% | efflux ratio (MDR1): 3.7 | bioavailability (in vivo [6]): 10% | IC50 [64]: 1.83 µM | solubility (physchem [8]): 176 µM (≈ 66.6 µg/mL) | CLH [65]: 567 mL/min/kg | IC50 [11]: 20 µM | Papp (in vitro [66]): 33.4 ×10⁻⁶ cm/s | half-life (in vivo [14]): 3.38 h | IC50 [48]: 3.13 µM | clearance (in vivo [49]): 54 mL/min/kg | logD (physchem [16]): 2.9 | Cp [67]: 400 ng/mL | IC50 [68]: 30 µM
